Data: ChEMBL document CHEMBL1151676, “Structure and absolute stereochemistry of fusaproliferin, a toxic metabolite from Fusarium proliferatum” (J Nat Prod, 1996)
Values after ≈ are worked out from the molar mass of the structure shown.

Test: Toxicity in Artemia salina
Format: organism-based
Conditions: in vivo, read-out: LD50 (the source's name)

## CC(=O)OC[C@@H](C)C1=C(O)C(=O)[C@@]2(C)C/C=C(\C)CC/C=C(\C)CC[C@H](O)/C(C)=C/C[C@H]12 [FUSAPROLIFERIN]
  LC50: 0.4 µg/mL (≈ 0.9 µM)
